In patent US8609715B2, “Heteroarylcarboxylic acid ester derivative” (Ajinomoto Co., Inc., priority 2009, dated 2013):
Where a name gives a salt, the structure may show the parent alone.

molecular target: recombinant human enteropeptidase (Homo sapiens (Human), UniProt P98073); assay: Measurement of enteropeptidase inhibitory activity; assay type: biochemical; conditions: Dixon plot
Description: Measurement of Enteropeptidase Inhibitory Activity
Using a 96 well plate (#3915, Costar), a test compound (25 μL), 400 mM Tris-HCl buffer (pH 8.0, 25 μL) and 0.5 mg/mL fluorescence enzyme substrate (Gly-Asp-Asp-Asp-Asp-Lys-β-Naphtylamide, 25 μL) were mixed, and recombinant human enteropeptidase (R&D Systems, Inc., 25 μL) was added. Using a fluorescence plate reader fmax (Molecular Devices, Inc.), the reaction rate was measured from the time-course changes at excitation wavelength 320 nm and fluorescence wavelength 405 nm. The Ki value was calculated from the concentration of the test compound, reciprocal of reaction rate, and Km value of the enzyme substrate, and by using Dixon plot.

recombinant human enteropeptidase, sequence (P98073 whole entry): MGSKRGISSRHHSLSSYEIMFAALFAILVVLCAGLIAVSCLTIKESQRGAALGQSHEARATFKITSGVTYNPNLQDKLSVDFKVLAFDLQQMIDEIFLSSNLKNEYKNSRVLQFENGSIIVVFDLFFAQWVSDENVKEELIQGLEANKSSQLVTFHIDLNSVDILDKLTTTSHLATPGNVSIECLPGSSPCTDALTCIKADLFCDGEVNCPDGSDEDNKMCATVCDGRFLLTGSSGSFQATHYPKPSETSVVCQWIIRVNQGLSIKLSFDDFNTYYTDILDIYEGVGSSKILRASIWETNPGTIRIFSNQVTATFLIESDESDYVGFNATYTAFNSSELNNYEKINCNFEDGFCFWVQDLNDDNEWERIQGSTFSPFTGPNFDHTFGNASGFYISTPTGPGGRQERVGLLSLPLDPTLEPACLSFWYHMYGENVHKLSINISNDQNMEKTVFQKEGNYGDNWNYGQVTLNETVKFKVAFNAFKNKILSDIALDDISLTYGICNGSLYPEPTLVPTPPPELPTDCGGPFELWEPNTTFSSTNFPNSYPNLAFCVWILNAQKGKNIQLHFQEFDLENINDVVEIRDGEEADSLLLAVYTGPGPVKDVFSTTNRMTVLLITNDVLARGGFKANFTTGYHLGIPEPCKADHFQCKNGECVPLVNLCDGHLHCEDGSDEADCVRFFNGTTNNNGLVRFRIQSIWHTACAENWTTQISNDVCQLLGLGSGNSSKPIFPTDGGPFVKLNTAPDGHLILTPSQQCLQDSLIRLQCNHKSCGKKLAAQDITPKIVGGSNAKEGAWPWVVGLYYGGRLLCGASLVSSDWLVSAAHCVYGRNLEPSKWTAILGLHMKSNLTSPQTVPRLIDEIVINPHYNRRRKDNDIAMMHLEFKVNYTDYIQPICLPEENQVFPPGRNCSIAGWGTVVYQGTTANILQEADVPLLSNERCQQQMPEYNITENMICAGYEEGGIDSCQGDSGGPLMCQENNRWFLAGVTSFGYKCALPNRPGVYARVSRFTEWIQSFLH

Ki	SMILES
2.2 nM	CC(Cc1ccc(C(=O)Oc2ccc(C(=N)N)cc2F)s1)C(=O)N1CCCC(C(=O)O)C1 (centres unmarked) [Compound B-34]
0.4 nM	CC(Cc1ccc(C(=O)Oc2ccc(C(=N)N)cc2F)s1)C(=O)N[C@@H](CO)C(=O)O (some centres unmarked) [Compound B-35]
0.51 nM	N=C(N)c1ccc(OC(=O)c2ccc(CCC(=O)N[C@H](CC(=O)O)C(=O)O)s2)c(F)c1 [Compound B-36]
0.5 nM	N=C(N)c1ccc(OC(=O)c2ccc(CCC(=O)N(CCC(=O)O)CC(=O)O)s2)c(F)c1 [Compound B-37]
0.75 nM	C=CCN(CC(=O)O)C(=O)CCc1ccc(C(=O)Oc2ccc(C(=N)N)cc2F)s1 [Compound B-38, N-{3-[5-(4-amidino-2-fluorophenoxycarbonyl)thiophen-2-yl]propionyl}-N-allylglycine trifluoroacetic acid salt]
0.95 nM	CC(Cc1ccc(C(=O)Oc2ccc(C(=N)N)cc2)s1)C(=O)N[C@@H](CS(=O)(=O)O)C(=O)O (stereo partly drawn) [Compound B-39, N-{3-[5-(4-amidinophenoxycarbonyl)-thiophen-2-yl]-2-methylpropanoyl}-L-cysteic acid trifluoroacetic acid salt]
2 nM	CC(Cc1ccc(C(=O)Oc2ccc(C(=N)N)cc2)s1)C(=O)NCP(=O)(O)O (centres unmarked) [Compound B-40, N-{3-[5-(4-amidinophenoxycarbonyl)-thiophen-2-yl]-2-methylpropanoyl}aminomethylphosphonic acid trifluoroacetic acid salt]
0.27 nM	CC(Cc1ccc(C(=O)Oc2ccc(C(=N)N)cc2F)s1)C(=O)N[C@@H](CS(=O)(=O)O)C(=O)O (some centres unmarked) [Compound B-41]
0.37 nM	CC(Cc1ccc(C(=O)Oc2ccc(C(=N)N)cc2F)s1)C(=O)NCP(=O)(O)O (centres unmarked) [Compound B-42]
0.42 nM	CC(Cc1ccc(C(=O)Oc2ccc(C(=N)N)cc2Cl)s1)C(=O)NCP(=O)(O)O (centres unmarked) [Compound B-43]
0.21 nM	CC(Cc1ccc(C(=O)Oc2ccc(C(=N)N)cc2Cl)s1)C(=O)N[C@@H](CS(=O)(=O)O)C(=O)O (some centres unmarked) [Compound B-44]
2.5 nM	CC(CCC(=O)O)Cc1ccc(C(=O)Oc2ccc(C(=N)N)cc2)s1 (centres unmarked) [Compound B-47]
0.88 nM	CC(CCC(=O)O)Cc1ccc(C(=O)Oc2ccc(C(=N)N)cc2F)s1 (centres unmarked) [Compound B-48]
0.41 nM	CC(CCC(=O)N[C@@H](CC(=O)O)C(=O)O)Cc1ccc(C(=O)Oc2ccc(C(=N)N)cc2F)s1 (some centres unmarked) [Compound B-49]
0.89 nM	CC(CCC(=O)N[C@@H](CC(=O)O)C(=O)O)Cc1ccc(C(=O)Oc2ccc(C(=N)N)cc2)s1 (some centres unmarked) [Compound B-50]
0.72 nM	CC(Cc1cc(C(=O)Oc2ccc(C(=N)N)cc2F)cs1)C(=O)O (centres unmarked) [Compound B-51, 3-[4-(4-amidino-2-fluorophenoxycarbonyl)thiophen-2-yl]-2-methylpropanoic acid trifluoroacetic acid salt]

Ki	SMILES
0.39 nM	CC(Cc1cc(C(=O)Oc2ccc(C(=N)N)cc2F)cs1)C(=O)N[C@@H](CC(=O)O)C(=O)O (some centres unmarked) [Compound B-52]
4.8 nM	CC(Cc1cc(C(=O)Oc2ccc(C(=N)N)cc2)cs1)C(=O)N[C@@H](CC(=O)O)C(=O)O (some centres unmarked) [Compound B-53]
0.58 nM	N=C(N)c1ccc(OC(=O)c2csc(CCC(=O)N[C@@H](CC(=O)O)C(=O)O)c2)c(F)c1 [Compound B-54, N-{3-[4-(4-amidino-2-fluorophenoxycarbonyl)thiophen-2-yl]propanoyl}-L-aspartic acid trifluoroacetic acid salt]
0.98 nM	CC(Cc1csc(C(=O)Oc2ccc(C(=N)N)cc2)c1)C(=O)N[C@@H](CC(=O)O)C(=O)O (some centres unmarked) [Compound B-55]
9.5 nM	N=C(N)c1ccc(OC(=O)c2ccc(-c3ccc(C(=O)N[C@@H](CC(=O)O)C(=O)O)cc3)s2)cc1 [Compound B-56]
3 nM	N=C(N)c1ccc(OC(=O)c2ccc(-c3ccc(C(=O)N[C@@H](CC(=O)O)C(=O)O)cc3)s2)c(F)c1 [Compound B-57]
9.8 nM	N=C(N)c1ccc(OC(=O)c2ccc(-c3cccc(C(=O)N[C@@H](CC(=O)O)C(=O)O)c3)s2)cc1 [Compound B-58]
8.2 nM	N=C(N)c1ccc(OC(=O)c2ccc(-c3ccc(C(=O)N[C@@H](CC(=O)O)C(=O)O)s3)s2)cc1 [Compound B-59, N-{5-[5-(4-amidinophenoxycarbonyl)-thiophen-2-yl]thiophen-2-ylcarbonyl}-L-aspartic acid trifluoroacetic acid salt]
0.64 nM	N=C(N)c1ccc(OC(=O)c2ccc(CC(=O)N[C@@H](CC(=O)O)C(=O)O)s2)c(F)c1 [Compound B-60, N-[5-(4-amidino-2-fluorophenoxycarbonyl)thiophen-2-ylacetyl]-L-aspartic acid trifluoroacetic acid salt]
0.13 nM	Cc1cc(C(=O)Oc2ccc(C(=N)N)cc2F)sc1CCC(=O)N[C@@H](CC(=O)O)C(=O)O [Compound B-61, N-{3-[5-(4-amidino-2-fluorophenoxycarbonyl)-3-methylthiophen-2-yl]propanoyl}-L-aspartic acid trifluoroacetic acid salt]
0.57 nM	N=C(N)c1ccc(OC(=O)c2ccc(CCC(=O)N[C@@H](CCC(=O)O)C(=O)O)s2)c(F)c1 [Compound B-62]
0.55 nM	C=CCN(C(=O)CCc1ccc(C(=O)Oc2ccc(C(=N)N)cc2F)s1)[C@@H](CC(=O)O)C(=O)O [Compound B-63, N-{3-[5-(4-amidino-2-fluorophenoxycarbonyl)thiophen-2-yl]propanoyl}-N-allyl-L-aspartic acid trifluoroacetic acid salt]
0.14 nM	CC(C)(Cc1ccc(C(=O)Oc2ccc(C(=N)N)cc2F)s1)C(=O)N[C@@H](CC(=O)O)C(=O)O [Compound B-64, N-{3-[5-(4-amidino-2-fluorophenoxycarbonyl)thiophen-2-yl]-2,2-dimethylpropanoyl}-L-aspartic acid trifluoroacetic acid salt]
3.2 nM	N=C(N)c1ccc(OC(=O)c2ccc(CCC(=O)N[C@@H](Cc3ccc(O)cc3)C(=O)O)s2)c(F)c1 [Compound B-65]
0.73 nM	N=C(N)c1ccc(OC(=O)c2ccc(CCC(=O)N[C@@H](CO)C(=O)O)s2)c(F)c1 [Compound B-66]
5.67 nM	C/C(=C\c1nc(C(=O)Oc2ccc(C(=N)N)cc2)cs1)C(=O)N(CCCO)CC(=O)O [Compound C-2]

test system: KK-A^y/JCL mice; assay: Evaluation of antidiabetic action (blood glucose level); assay type: in vivo; conditions: dose 5.6 mg/100 g mixed in feed CRF-1, after one week of dosing
Source text: Evaluation of Antidiabetic Action KK-A^y/JCL mice (male, 5- to 7-week-old, CLEA Japan, Inc.) known to spontaneously develop obese type 2 diabetes were purchased and, after one week of preliminary rearing period, grouped (6 per group) with the body weight and non-fasting blood glucose levels as indices. The animals were individually housed in a polycarbonate cage and allowed to drink water freely from a watering bottle. […] CRF-1 alone was given to the control group. After one week of dosing period, the blood (6 μL) was drawn from the tail vein of the animals, and the blood glucose level was measured by ACCU-CHEK Aviva (Roche Diagnostics K.K.). A significant difference from the control group was detected by Dunnett's multiple comparison test or Student's t-test (significance level less than 5%).

SMILES	Mean blood glucose level
CC(Cc1ccc(C(=O)Oc2ccc(C(=N)N)cc2)o1)C(=O)N[C@H](CC(=O)O)C(=O)O.O=C(O)C(F)(F)F (some centres unmarked) [A-28 hydrochloride]	219 mg/dL
CC(Cc1ccc(C(=O)Oc2ccc(C(=N)N)cc2)s1)C(=O)N[C@@H](CC(=O)O)C(=O)O.O=C(O)C(F)(F)F (some centres unmarked) [B-18 hydrochloride]	217 mg/dL
CC(Cc1ccc(C(=O)Oc2ccc(C(=N)N)cc2F)s1)C(=O)N[C@@H](CC(=O)O)C(=O)O.O=C(O)C(F)(F)F (some centres unmarked) [B-20 hydrochloride]	197 mg/dL
CC(Cc1ccc(C(=O)Oc2ccc(C(=N)N)cc2)s1)C(=O)N[C@H](CC(=O)O)C(=O)O.Cl (some centres unmarked) [B-23 hydrochloride]	198 mg/dL
N=C(N)c1ccc(OC(=O)c2ccc(CCC(=O)N[C@@H](CC(=O)O)C(=O)O)s2)c(F)c1.O=C(O)C(F)(F)F [B-32 hydrochloride]	249 mg/dL

same assay, conditions: dose 16.8 mg/100 g mixed in feed CRF-1, after one week of dosing

SMILES	Mean blood glucose level
CC(Cc1ccc(C(=O)Oc2ccc(C(=N)N)cc2)s1)C(=O)N[C@@H](CC(=O)O)C(=O)O.O=C(O)C(F)(F)F (some centres unmarked) [B-18 hydrochloride]	138 mg/dL
